Two compounds from patent publication US12144299B2, “Mobilisation of transposable elements to enhance genetic and epigenetic variability in a population” (priority 2015, dated 2024) can be followed below.

The subject of one assay is LINE-1 retrotransposon. The assay is described as follows: LINE-1 DNA methylation assay in A549 cells. It is filed as cell-based, human. The conditions noted are these: A 0.5 μg/ml, Z 350 μM. How it is done:
(§1) For the A549 human cancer cell line cells were grown in medium without treatment or supplemented with either Z (350 μM) or A (0.5 μg/ml), DNA was extracted by using the QiaAmp DNA mini Kit (Qiagen, France). Next, global DNA methylation was estimated by quantifying the presence of 5-methylcytosine 5-mC DNA ELISA Kit (Zymo Research) according to the manufacturers's instructions. DNA methylation at the LINE-1 transposons were assessed with the Global DNA Methylation Assay—LINE-1 kit (Active Motif).

The subject of another assay is ONSEN retrotransposon. Nature of the assay: ONSEN extrachromosomal DNA accumulation by qPCR in seedlings after heat stress. The conditions noted are these: HS. It is filed as in vivo, Arabidopsis thaliana. How it is done: After stratification for two days at 4° C., Arabidopsis thaliana plants (accession Col-0) were grown on sterile ½ MS medium with 1% sucrose and a pH of 5.8 (control medium) under long day conditions (16 h light) at 24° C. (day) and 22° C. (night), respectively. Oryza sativa plants were grown on sterile ½ MS medium with 1% sucrose and a pH of 5.8 (control medium) 16 h at 28° C. (day) and 27° C. (night), respectively.
The induction of epigenetic changes and the activation and stable integration of transposable elements in Arabidopsis seedlings was enhanced by germinating and growing them on ½ MS-medium that contained zebularine (final concentration: 10-40 μM), α-amanitin (final concentration: 0.005-20 μg/ml) or a combination of both chemicals (inductive media).
In order to trigger the transposition of the heat-responsive retrotransposon ONSEN, seven days old seedlings were exposed to a cold shock for 24 h at 6° C. followed by a heat-stress for 24 h at 37° C. (heat stress, HS) under controlled conditions in a growth chamber (Sanyo). Control plants were transferred back to longday-conditions 24° C. (day) and 22° C. (night) after the cold treatment at 6° C. for 24 h (CS, control stress, according to Ito et al., 2011).
Total DNA from seedlings and adult plants was isolated using a DNeasy Plant Mini Kit (QIAGEN).
In preparation to the measurement of extrachromosomal DNA copies of ONSEN in CS/HS and untreated/treated seedlings, roots were dissected directly after the heat stress and plants were immediately frozen in liquid nitrogen until DNA extraction.
The copy numbers of ONSEN were determined with qPCRs on total DNA using a TaqMan master mix (Life Technologies) in a final volume of 10 μl in the Light-Cycler 480 (Roche). ACTOPIA17 copy number was measured by quantitative PCR (qPCR) in a Light-Cycler 480 (Roche), using […] Master Mix. Actin2 (At3g18780) served as a standard gene for normalization.
On the technique in general: In qPCR the cycle at which signal appears reflects the starting amount.

Assay [1] concerns A549 human cancer cell line. The assay is described as follows: Global DNA methylation (5-mC DNA ELISA) in A549 cells. It counts as cell-based. As to conditions: A 0.5 μg/ml, Z 350 μM. How it is done:
as §1
A general note: In an ELISA, binding on a coated surface is turned into a signal by an enzyme label.

The test system of another assay is ONSEN LTR. The assay is described as follows: DNA methylation analysis (DdeI chop PCR, bisulfite sequencing) at the ONSEN LTR. It counts as in vivo, Arabidopsis thaliana. How it is done: 20 ng of total genomic DNA isolated from Arabidopsis seedlings was digested with the methylation sensitive restriction enzyme, Dde1 (NEB) at 37° C. over night. Following heat inactivation at 60° C. for 20 min, the digested DNA was used as a template for the chopPCR. Actin2 served as a control for the digest. Undigested DNA was used as a loading control. PCR products were separated on a 1% agarose gel and stained with Midori Green.

“Also recorded” adds a separate entry of the source.

For `O=c1ncccn1[C@@H]1O[C@H](CO)[C@@H](O)[C@H]1O` [Z, zebularine], in the assay on LINE-1 retrotransposon, the “reduction of DNA methylation at LINE-1” value was 20%.
`CC[C@H](C)[C@@H]1NC(=O)CNC(=O)[C@@H]2Cc3c([nH]c4cc(O)ccc34)[S+]([O-])C[C@@H](NC(=O)CNC1=O)C(=O)N[C@@H](CC(N)=O)C(=O)N1C[C@H](O)C[C@H]1C(=O)N[C@@H]([C@@H](C)[C@@H](O)CO)C(=O)N2` (stereo partly drawn) [A, alpha-amanitin]: the “ONSEN copy number at different α-amanitin concentrations” value in the assay with ONSEN retrotransposon (Col wildtype seedlings, α-amanitin in different concentrations in μg/ml) is given as “dose dependent accumulation”. The “ONSEN ecDNA accumulation in dcl2/3/4 triple mutant” value in the assay with ONSEN retrotransposon (dcl2/3/4 triple-mutant grown on A) was “no effect”. In the assay with ONSEN retrotransposon (rdr6 plants grown on A), the “ONSEN ecDNA accumulation in rdr6 mutant” value is given as “still enhancing ecDNA accumulation”. Moreover, the “ONSEN ecDNA accumulation after heat stress” value in the assay on ONSEN retrotransposon (wild-type seedlings, A 5 μg/ml, Z 40 μM) is recorded as “increase in ONSEN ecDNA”. For the same compound, the “reduction of global DNA methylation” value in assay [1] is 40%. The “reduction of DNA methylation at LINE-1” value with LINE-1 retrotransposon was 40%. Besides, the “DNA methylation at the ONSEN LTR at higher A concentration” value in the assay on ONSEN LTR (WT (Col) seedlings, A 20 μg/ml, Z 10 μM) is given as “reduction in DNA-methylation; also recorded: strongly reduced DNA methylation”. Also, in the assay with ONSEN LTR (after CS, A 5 μg/ml, Z 40 μM), the “CHH methylation at the ONSEN LTR” value is “reduced CHH methylation levels”.
